Assay results: the supplement of paper PMC10307832

Key:
Experiment in all cases: relative viability (nuclei count vs DMSO), 5 days (fraction); higher = more cells survive
Motesanib + Lapatinib = compound: CC1(C)CNc2cc(NC(=O)c3cccnc3NCc3ccncc3)ccc21 [Motesanib] + CS(=O)(=O)CCNCc1ccc(-c2ccc3ncnc(Nc4ccc(OCc5cccc(F)c5)c(Cl)c4)c3c2)o1 [Lapatinib] (partner 2 µM)
Method in brief: (§1)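 After 5 days of treatment, lung cancer cells in 1536-well plates were fixed and stained in a single step (final 0.05% Triton X-100, 1% formaldehyde, 1 ug/ml Hoechst) and their nuclei counted on 4× images. Treatment had been applied by pin tool the day after seeding as one drug alone or as a fixed anchor-drug dose with five library-drug doses (not always all listed) in √10 steps. Relative viability is the nuclei count of treated wells divided by that of vehicle wells, and values are medians of duplicate plates.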

[1] = compound: C[C@@]1(C(=O)Nc2ccc(F)nc2)CCCN1c1nc(Nc2cc(C3CC3)n[nH]2)c2cccn2n1 + Cc1cc(Nc2cc(N3CCN(C)CC3)nc(Sc3ccc(NC(=O)C4CC4)cc3)n2)n[nH]1 [Tozasertib] (partner 0.1 µM)
Method in brief: as §1

[2] = compound: C[C@@]1(C(=O)Nc2ccc(F)nc2)CCCN1c1nc(Nc2cc(C3CC3)n[nH]2)c2cccn2n1 + Cc1nc(NC(=O)N2CCC[C@H]2C(N)=O)sc1-c1ccnc(C(C)(C)C(F)(F)F)c1 [Alpelisib] (partner 2 µM)
Method in brief: as §1

[3] = compound: C[C@@]1(C(=O)Nc2ccc(F)nc2)CCCN1c1nc(Nc2cc(C3CC3)n[nH]2)c2cccn2n1 + O=C(c1cc(Cc2n[nH]c(=O)c3ccccc23)ccc1F)N1CCN(C(=O)C2CC2)CC1 [Olaparib] (partner 8 µM)
Method in brief: as §1

Cell Line	relative viability (Motesanib + Lapatinib; first compound 0.01 µM)	relative viability (Motesanib + Lapatinib; first compound 0.03162 µM)	relative viability (Motesanib + Lapatinib; first compound 0.1 µM)	relative viability (Motesanib + Lapatinib; first compound 0.3162 µM)	relative viability (Motesanib + Lapatinib; first compound 1 µM)	relative viability ([1]; first compound 0.04 µM)	relative viability ([1]; first compound 0.1265 µM)	relative viability ([1]; first compound 0.4 µM)	relative viability ([1]; first compound 1.265 µM)	relative viability ([2]; first compound 0.04 µM)	relative viability ([2]; first compound 0.1265 µM)	relative viability ([2]; first compound 0.4 µM)	relative viability ([2]; first compound 1.265 µM)	relative viability ([3]; first compound 0.04 µM)	relative viability ([3]; first compound 0.1265 µM)	relative viability ([3]; first compound 0.4 µM)	relative viability ([3]; first compound 1.265 µM)
201T	1.01	1.04	1.08	1.04	0.903	0.827	0.709	0.431	0.863	0.893	0.836	0.767	0.942	0.755	0.725	0.729	0.9
A549	0.965	0.975	0.989	1.09	0.955					0.638	0.392	0.333	0.35	0.293	0.17	0.148	0.244
A-427	0.668	1.02	0.896	1.1	1.02	0.234	0.192	0.173	0.198	1.08	1.09	1.03	1.16	0.666	0.663	0.603	0.529
ABC-1	1.12	0.945	1.01	1.27	1.17	0.2	0.128	0.184	0.165	0.875	0.845	0.659	0.945	0.664	0.584	0.774	0.668
BEN	0.591	0.715	0.723	0.714	0.789	0.551	0.529	0.517	0.501	1.16	1.37	0.929	1.16	1.09	1.14	0.97	0.988
CAL-12T			0.67	0.649	0.65	0.249	0.27	0.275	0.189	1.16	1.14	0.762	0.953	0.729	0.751	0.583	0.449
COR-L23	0.931	0.929	1.01	0.996	1.08	0.195	0.23	0.131	0.107	0.721	0.711	0.563	0.412	0.315	0.367	0.234	0.188
COR-L 105	0.368	0.408	0.327	0.355	0.347	0.373	0.332	0.426	0.3	0.871	0.805	0.689	0.806	0.74	0.604	0.571	0.595
Calu-6	1.06	1.05	1.02	0.997	0.999					1.05	0.932	0.888	0.455	0.612	0.644	0.543	0.384
ChaGo-K-1						0.209	0.197	0.201	0.207					0.414	0.398	0.402	0.422
EBC-1	0.268	0.206	0.223	0.211	0.223					1.04	0.608	0.642	0.431	0.695	0.666	0.61	0.391
